Assay results as given in US7888464B2, “Hepatitis C virus inhibitors” (Bristol-Myers Squibb Company, priority 2006, dated 2011).

Experiments:
[1] = target: T1, HCV NS3/4A protease complex, BMS strain (genotype 1a) (UniProt P27958, species not given/STRAIN_BMS); experiment: FRET peptide assay to monitor HCV NS3/4A proteolytic activity (BMS strain); type: biochemical; settings: BMS strain; read-out: IC50 against the NS3/4A BMS strain in the enzyme assay
T1 construct: "DNA encoding the recombinant HCV NS3/4A protease complex (amino acids 1027 to 1711) for these strains" (said of H77 and J4L6S, not expressly of BMS); given for the H77/J4L6S constructs only
Source text: (§1) HCV NS3 protease complexes, derived from the BMS strain, H77 strain or J4L6S strain, were generated, as described below. These purified recombinant proteins were generated for use in a homogeneous assay (see below) to provide an indication of how effective compounds of the present disclosure would be in inhibiting HCV NS3 proteolytic activity.
Serum from an HCV-infected patient was obtained from Dr. T. Wright, San Francisco Hospital. An engineered full-length cDNA (compliment deoxyribonucleic acid) template of the HCV genome (BMS strain) was constructed from DNA fragments obtained by reverse transcription-PCR(RT-PCR) of serum RNA (ribonucleic acid) and using primers selected on the basis of homology between other genotype la strains. From the determination of the entire genome sequence, a genotype la was assigned to the HCV isolate according to the classification of Simmonds et al. (See P Simmonds, K A Rose, S Graham, S W Chan, F McOmish, B C Dow, E A Follett, P L Yap and H Marsden, J. Clin. Microbiol., 31(6), 1493-1503 (1993)). […] The infectious clones, H77 (1a genotype) and J4L6S (1b genotype) were obtained from R. Purcell (NIH) and the sequences are published in Genbank (AAB67036, see Yanagi, M., Purcell, R. H., Emerson, S. U. and Bukh, J. Proc. Natl. Acad. Sci. U.S.A. 94(16), 8738-8743 (1997); AF054247, see Yanagi, M., St Claire, M., Shapiro, M., Emerson, S. U., Purcell, R. H. and Bukh, J, Virology 244 (1), 161-172. (1998)).
The H77 and J4L6S strains were used for production of recombinant NS3/4A protease complexes. DNA encoding the recombinant HCV NS3/4A protease complex (amino acids 1027 to 1711) for these strains were manipulated as described by P. Gallinari et al. (see Gallinari P, Paolini C, Brennan D, Nardi C, Steinkuhler C, De Francesco R. Biochemistry. 38(17):5620-32, (1999)). Briefly, a three-lysine solubilizing tail was added at the 3′-end of the NS4A coding region. The cysteine in the P1 position of the NS4A-NS4B cleavage site (amino acid 1711) was changed to a glycine to avoid the proteolytic cleavage of the lysine tag. Furthermore, a cysteine to serine mutation was introduced by PCR at amino acid position 1454 to prevent the autolytic cleavage in the NS3 helicase domain. The variant DNA fragment was cloned in the pET21b bacterial expression vector (Novagen) and the NS3/4A complex was expressed in Escherichia. coli strain BL21 (DE3) (Invitrogen) following the protocol described by P. Gallinari et al. (see Gallinari P, Brennan D, Nardi C, Brunetti M, Tomei L, Steinkuhler C, De Francesco R., J. Virol. 72(8):6758-69 (1998)) with modifications. Briefly, the NS3/4A protease complex expression was induced with 0.5 millimolar (mM) Isopropyl β-D-1-thiogalactopyranoside (IPTG) for 22 hours (h) at 20° C. A typical fermentation (1 Liter (L)) yielded approximately 10 grams (g) of wet cell paste. The cells were resuspended in lysis buffer (10 mL/g) consisting of 25 mM N-(2-Hydroxyethyl)piperazine-N′-(2-Ethane Sulfonic acid) (HEPES), pH 7.5, 20% glycerol, 500 mM Sodium Chloride (NaCl), 0.5% Triton X-100, 1 microgram/milliliter (“μg/mL”) lysozyme, 5 mM Magnesium Chloride (MgCl2), 1 μg/ml DnaseI, 5 mM β-Mercaptoethanol (βME), Protease inhibitor-Ethylenediamine Tetraacetic acid (EDTA) free (Roche), homogenized and incubated for 20 minutes (min) at 4° C. The homogenate was sonicated and clarified by ultra-centrifugation at 235000 g for 1 hour (h) at 4° C. Imidazole was added to the supernatant to a final concentration of 15 mM and the pH adjusted to 8.0. The crude protein extract was loaded on a Nickel-Nitrilotriacetic acid (Ni-NTA) column pre-equilibrated with buffer B (25 mM HEPES, pH 8.0, 20% glycerol, 500 mM NaCl, 0.5% Triton X-100, 15 mM imidazole, 5 mM βME). The sample was loaded at a flow rate of 1 mL/min. The column was washed with 15 column volumes of buffer C (same as buffer B except with 0.2% Triton X-100). The protein was eluted with 5 column volumes of buffer D (same as buffer C except with 200 mM Imidazole). […]

[2] = target: T2, HCV NS3/4A protease complex, H77 strain (1a genotype) (Hepatitis C virus genotype 1a, UniProt P27958, C1454S/C1711G); experiment: FRET peptide assay to monitor HCV NS3/4A proteolytic activity (H77 strain); type: biochemical; settings: read-out: IC50 against NS3/4A H77 strain
T2 construct: DNA encoding the recombinant HCV NS3/4A protease complex (amino acids 1027 to 1711) for these strains; made in house; host or cells: Escherichia coli BL21 (DE3), pET21b
Source text: as §1
Serum from an HCV-infected patient was obtained from Dr. T. Wright, San Francisco Hospital. An engineered full-length cDNA (compliment deoxyribonucleic acid) template of the HCV genome (BMS strain) was constructed from DNA fragments obtained by reverse transcription-PCR(RT-PCR) of serum RNA (ribonucleic acid) and using primers selected on the basis of homology between other genotype la strains. From the determination of the entire genome sequence, a genotype la was assigned to the HCV isolate according to the classification of Simmonds et al. (See P Simmonds, K A Rose, S Graham, S W Chan, F McOmish, B C Dow, E A Follett, P L Yap and H Marsden, J. Clin. Microbiol., 31(6), 1493-1503 (1993)). […]

T1 sequence (P27958 1027-1657, stated change not applied, one chain of several): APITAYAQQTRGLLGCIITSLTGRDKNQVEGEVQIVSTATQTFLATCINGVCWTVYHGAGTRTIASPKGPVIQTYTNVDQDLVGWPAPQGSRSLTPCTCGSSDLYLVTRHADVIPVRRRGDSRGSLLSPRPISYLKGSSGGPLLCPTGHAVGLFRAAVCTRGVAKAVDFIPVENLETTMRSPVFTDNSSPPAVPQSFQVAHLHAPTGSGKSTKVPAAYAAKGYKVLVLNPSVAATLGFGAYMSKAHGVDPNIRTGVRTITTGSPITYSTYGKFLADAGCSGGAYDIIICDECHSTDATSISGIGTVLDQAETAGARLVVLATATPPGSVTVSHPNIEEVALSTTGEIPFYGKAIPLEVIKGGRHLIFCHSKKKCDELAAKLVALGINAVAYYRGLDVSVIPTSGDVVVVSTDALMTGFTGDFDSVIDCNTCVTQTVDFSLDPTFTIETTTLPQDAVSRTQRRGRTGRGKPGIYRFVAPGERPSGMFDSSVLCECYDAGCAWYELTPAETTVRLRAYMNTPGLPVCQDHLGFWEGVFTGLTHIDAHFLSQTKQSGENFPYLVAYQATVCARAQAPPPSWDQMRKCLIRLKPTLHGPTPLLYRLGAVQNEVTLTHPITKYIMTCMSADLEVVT
T2 sequence (P27958 1027-1711 C1454S/C1711G, one chain of several): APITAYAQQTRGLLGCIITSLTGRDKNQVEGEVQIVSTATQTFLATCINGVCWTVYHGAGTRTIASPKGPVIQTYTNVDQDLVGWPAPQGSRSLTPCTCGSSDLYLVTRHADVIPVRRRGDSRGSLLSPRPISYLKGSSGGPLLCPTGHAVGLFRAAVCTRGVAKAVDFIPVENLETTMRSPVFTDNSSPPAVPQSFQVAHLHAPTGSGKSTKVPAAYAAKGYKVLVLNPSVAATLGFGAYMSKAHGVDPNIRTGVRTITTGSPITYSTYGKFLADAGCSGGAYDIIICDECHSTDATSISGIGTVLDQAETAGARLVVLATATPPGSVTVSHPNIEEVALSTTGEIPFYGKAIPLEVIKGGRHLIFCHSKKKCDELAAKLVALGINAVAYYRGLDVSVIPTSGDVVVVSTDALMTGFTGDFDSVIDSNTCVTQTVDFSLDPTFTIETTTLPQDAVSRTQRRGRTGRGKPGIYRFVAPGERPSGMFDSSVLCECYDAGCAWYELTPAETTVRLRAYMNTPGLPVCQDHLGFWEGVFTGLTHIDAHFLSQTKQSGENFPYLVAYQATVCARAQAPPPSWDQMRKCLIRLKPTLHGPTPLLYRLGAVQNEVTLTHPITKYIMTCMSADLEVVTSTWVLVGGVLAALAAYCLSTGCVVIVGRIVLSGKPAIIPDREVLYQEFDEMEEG

C=C[C@@H]1C[C@]1(NC(=O)[C@@H]1C[C@@](O)(c2ccc(-c3ccccc3)cc2)CN1C(=O)[C@@H](NC(=O)OC(C)(C)C)C(C)(C)C)C(=O)NS(=O)(=O)C1CC1 [Compound 3]
IC50 [1]: 4.4 nM | IC50 [2]: 1.6 nM
